Results taken from patent US12178800B2, “Sulforaphane-melatonin-like compound” (priority 2018, dated 2024).

Experiments:
Assay type in all cases: in vivo, Gottingen mini-pigs
nuclear factor (NF)-κB = assay: NF-κB immunohistochemistry of irradiated skin
Experimental: After incubation in normal horse serum for 60 min to prevent nonspecific binding, the skin sections were incubated with mouse anti-nuclear factor (NF)-κB (sc-109, 1:200; Santa Cruz Biotechnology, Santa Cruz, CA, USA) and mouse anti-COX-2 (18-7379, 1:200; Zymed, USA) in phosphate buffered saline-Tween (PBS-T overnight at 4° C. The sections were subsequently incubated with biotinylated horse anti-mouse IgG (VECTASTAIN Elite ABC Kit; Vector Laboratories, USA). The immunoreactivity was assessed using the avidin-biotin peroxidase complex (VECTASTAIN Elite ABC Kit; Vector Laboratories). The peroxidase reaction was developed using a diaminobenzidine substrate kit (DAB Substrate Kit SK-4100; Vector Laboratories). As a control, the primary antibodies were omitted from the immunohistochemical analysis of a few test sections in each experiment. The sections were then counterstained with hematoxylin before being mounted.

irradiated skin of pigs = assay: Skin biopsy histology (hematoxylin and eosin): basal cell density and epidermal thickness
Experimental: A 5 mm punch biopsy was performed under anesthesia to obtain a skin sample from the non-irradiated healthy skin and the irradiated skin area 3, 7, 21, and 35 days after irradiation. After collection, skin biopsy samples were pinned to a cork to maintain the 5 mm size. Biopsy samples of non-irradiated skin were obtained from each pig before irradiation. All biopsy samples were processed and embedded in paraffin wax after fixation in 10% buffered formalin, then cut into 4 μm thick coronal sections and deparaffinized. Next, the sections were stained with hematoxylin and eosin and examined by optical microscopy. The longest rete ridge on each slide was selected and measured from the bottom of the basal layer to the bottom of the stratum corneum, avoiding the areas in which the inclusion appeared to be oblique. The mean values were then calculated based on the measurements of each section on each slide. The cell density of the basal layers was determined by counting the cells in the basement membrane at a depth of at least 5 mm. The results were expressed as the number of cells per millimeter of basement membrane.
The data were expressed as the means±the standard error of the mean (SEM) values. Differences between groups were evaluated by one-way analysis of variance (ANOVA) followed by a Student-Newman-Keuls post hoc test for multiple comparisons. In all cases, a p<0.05 was considered significant.

peripheral blood = assay: Peripheral blood counts after focal irradiation
Description: Blood samples were collected via the ear vein into sample tubes containing ethylenediaminetetraacetic acid at different time points (before irradiation, 3, 7, 21, and 35 days after irradiation). Peripheral eosinophils were automatically counted using a Hemavet System (Drew Scientific, UK).

[1] = 21 and 35 days after irradiation, decrease not significant

For `COc1cc2c(CCCCN=C=S)c[nH]c2cc1O` [6OHM-6-HITC], which “NF-κB expression in irradiated skin vs. vehicle-treated irradiated skin” value (nuclear factor (NF)-κB; 7, 21 and 35 days after irradiation) is on record?
The value was “lower”.

And the “nuclear NF-κB expression” value (nuclear factor (NF)-κB; irradiated skin, treated)?
Its value is “rapidly decreased”.

And the “basal cell counts (density) in the epidermis” value (irradiated skin of pigs; 21 days after irradiation, p<0.01 vs. vehicle-treated irradiation group)?
The value was “significantly ameliorated”.

And the “thickness of the epidermis” value (irradiated skin of pigs; 35 days after irradiation, p<0.01 vs. vehicle-treated irradiation group)?
Its value is “prevented this decrease”.

And the “basal cell counts (density) in the epidermis” value (irradiated skin of pigs; 35 days after irradiation, p<0.05 vs. vehicle-treated irradiation group)?
Its value is “significantly ameliorated”.

And the “eosinophils in the blood” value (peripheral blood; [1])?
The value was “decreased”.

And the “neutrophils in the blood” value (peripheral blood; [1])?
The value was “decreased”.

And the “radioprotective effect on peripheral blood (white blood cell count)” value (peripheral blood; initially (7 days after exposure))?
Its value is “did not show a radioprotective effect”.
